Measurements: article PMC3004914, “Classification of Drugs Based on Properties of Sodium Channel Inhibition: A Comparative Automated Patch-Clamp Study” (PLoS ONE, 2010)
“And” between values parts separate entries of the source, which are not always exact repeats. Equal values may be shown once. Read-outs that look alike come from different tables or passages of the source.

Experiments:
[1] = molecular target: T1, rNav1.2 sodium channels (HEK-293 cells) (Rattus norvegicus, UniProt P04775); assay: steady-state inactivation protocol (availability curves), QPatch automated patch-clamp; format: cell-based
T1 sequence (P04775 whole entry, the tested form may be a part): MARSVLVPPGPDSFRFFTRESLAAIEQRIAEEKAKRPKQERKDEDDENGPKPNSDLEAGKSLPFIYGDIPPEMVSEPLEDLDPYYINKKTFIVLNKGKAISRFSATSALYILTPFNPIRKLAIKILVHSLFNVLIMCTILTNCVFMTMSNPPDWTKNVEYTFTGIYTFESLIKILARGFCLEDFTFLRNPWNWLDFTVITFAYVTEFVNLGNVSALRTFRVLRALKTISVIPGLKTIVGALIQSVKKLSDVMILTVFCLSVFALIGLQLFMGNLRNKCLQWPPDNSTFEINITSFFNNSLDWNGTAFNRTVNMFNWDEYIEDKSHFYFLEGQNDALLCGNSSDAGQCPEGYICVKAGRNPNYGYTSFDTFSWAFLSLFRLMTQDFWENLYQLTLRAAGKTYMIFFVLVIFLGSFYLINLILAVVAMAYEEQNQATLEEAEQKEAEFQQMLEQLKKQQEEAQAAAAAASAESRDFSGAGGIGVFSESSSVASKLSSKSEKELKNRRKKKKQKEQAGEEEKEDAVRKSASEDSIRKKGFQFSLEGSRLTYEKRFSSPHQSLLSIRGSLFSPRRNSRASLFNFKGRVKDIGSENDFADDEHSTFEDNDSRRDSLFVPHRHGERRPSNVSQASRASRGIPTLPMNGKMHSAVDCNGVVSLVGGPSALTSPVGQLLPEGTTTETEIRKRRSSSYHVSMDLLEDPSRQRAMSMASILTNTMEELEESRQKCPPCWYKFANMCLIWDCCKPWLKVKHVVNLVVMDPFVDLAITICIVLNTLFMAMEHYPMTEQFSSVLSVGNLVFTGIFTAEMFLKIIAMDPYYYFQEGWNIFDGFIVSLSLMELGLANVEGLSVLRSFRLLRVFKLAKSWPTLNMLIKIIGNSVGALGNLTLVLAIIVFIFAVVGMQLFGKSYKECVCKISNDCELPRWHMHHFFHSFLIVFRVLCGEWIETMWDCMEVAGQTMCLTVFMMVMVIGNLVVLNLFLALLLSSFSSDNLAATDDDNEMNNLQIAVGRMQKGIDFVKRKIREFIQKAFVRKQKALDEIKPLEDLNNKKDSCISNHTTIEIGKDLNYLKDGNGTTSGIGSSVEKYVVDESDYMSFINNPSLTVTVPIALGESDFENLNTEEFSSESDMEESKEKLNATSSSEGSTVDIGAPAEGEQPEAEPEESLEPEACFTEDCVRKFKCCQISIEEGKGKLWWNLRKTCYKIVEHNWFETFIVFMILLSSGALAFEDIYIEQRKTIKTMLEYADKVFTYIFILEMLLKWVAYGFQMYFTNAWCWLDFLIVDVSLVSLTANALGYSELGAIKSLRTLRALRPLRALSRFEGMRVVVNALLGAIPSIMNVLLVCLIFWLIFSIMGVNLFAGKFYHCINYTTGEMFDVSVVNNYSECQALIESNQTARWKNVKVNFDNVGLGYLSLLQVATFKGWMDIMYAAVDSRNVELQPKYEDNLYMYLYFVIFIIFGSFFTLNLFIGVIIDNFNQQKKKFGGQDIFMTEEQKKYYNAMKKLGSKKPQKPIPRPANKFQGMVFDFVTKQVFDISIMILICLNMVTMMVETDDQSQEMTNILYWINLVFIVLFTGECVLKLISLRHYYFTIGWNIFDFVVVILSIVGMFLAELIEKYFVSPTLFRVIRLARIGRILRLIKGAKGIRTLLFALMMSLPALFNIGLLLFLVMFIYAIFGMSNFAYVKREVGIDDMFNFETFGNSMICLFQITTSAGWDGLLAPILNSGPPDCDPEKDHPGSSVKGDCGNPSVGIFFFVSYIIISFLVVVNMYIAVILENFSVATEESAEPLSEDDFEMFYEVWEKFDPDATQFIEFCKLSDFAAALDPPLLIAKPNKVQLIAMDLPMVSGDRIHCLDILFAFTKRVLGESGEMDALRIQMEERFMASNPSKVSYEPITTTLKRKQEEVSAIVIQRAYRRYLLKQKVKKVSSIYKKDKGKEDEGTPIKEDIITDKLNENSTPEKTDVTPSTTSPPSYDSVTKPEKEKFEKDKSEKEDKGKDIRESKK
Excerpt: (§1) A)–D) Peak amplitudes of evoked currents (5 Hz trains of 5 depolarizations from −90 to −10 mV) are plotted against time. Black dots: Control. Grey dots: Drug perfusion. […] Calculation of properties of inhibition is illustrated. […] E) Calculation of Kr and Ki values from steady-state availability curves.
Standard steady-state inactivation protocols were used to measure the shift of steady-state availability curve caused by the drugs. Currents were evoked by a 10 ms test pulse to −10 mV, preceded by 400 ms pre-pulses from −150 to −30 mV. […] Because the inhibition at hyperpolarized potentials (Inh−150), and the shift of the availability curves (ΔV1/2) are both concentration-dependent properties, we calculated affinities to hyperpolarized and depolarized states (“resting state affinity”: Kr, and “inactivated state affinity”: Ki), which, on the other hand, are concentration-independent characteristics of individual drugs. Calculation of Kr and Ki values are described in Materials and Methods, and illustrated in Figure 1E. State-dependence (SD) was quantified as the ratio Kr/Ki.
(§2) HEK-293 cells stably expressing rNav1.2 sodium channels were obtained from NeuroSearch (Ballerup, Denmark).
(§3) Cells were automatically prepared for application to the chips (centrifuged and washed twice, then resuspended in extracellular solution) as described previously. Composition of the extracellular solution was: (in mM): 140 NaCl, 3 KCl, 1 CaCl2, 1 MgCl2, 0.1 CdCl2, 20 TEA-Cl, 5 HEPES, adjusted to pH 7.3, Osmolality: ∼320 mOsm.
(§4) All electrophysiological experiments were conducted on Qpatch-16 or QPatch HT instruments using QPlate™ chips. For a detailed description of the instrument and the patch-clamp chips see [37], [38]. Data were sampled at a frequency of 25 kHz and filtered at 5 kHz. […] The amplifier was controlled and the data were collected by the Sophion QPatch client software. For initial data analysis the QPatch software was used. Built-in amplifiers provide an improved method for series resistance compensation. Leak subtraction (based on a standard P/n protocol) was used to subtract the capacitive component of currents.
Inactivated affinity (Ki) values were calculated assuming a simple four-state model of drug binding and channel gating, using two separate methods: (1) from the shift of the availability curve (ΔV1/2), the slope of the Boltzmann fit of the availability curve (k) and Kr, using the formula described by Bean, Cohen and Tsien (Ki−ΔV1/2; see Figure 1E), or (2) from the apparent affinity (Kapp) at a certain pre-pulse potential, which was calculated from the inhibition (e.g. Inh−60) as described above, and the availability (h) at the same pre-pulse potential, using the formula from Kuo and Bean (Figure 1E). […] (Arithmetic means and SEM values are given in Results S7.)

[2] = molecular target: T1, rNav1.2 sodium channels (HEK-293 cells); assay: 5 Hz train protocol, QPatch automated patch-clamp; format: cell-based; conditions: for Rev (reversibility): Rev = A5/A1 after washout; for potency estimated from few doses: −90 mV, read-out: IC50;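 on UD (use-dependence of the inhibition): UD = (A3/A4)/(A1/A2) as ratios of peak amplitudes from Figure 1A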
Excerpt: The dynamics of the onset and offset of inhibition was monitored using 5 Hz trains of five depolarizing pulses from a holding potential of −90 mV to −10 mV. The trains were repeated every 20 s. Drugs were applied after 10 control trains and 10 trains were delivered in the presence of the drug. The drug was then washed out, and the 10 trains were repeated.
We measured inhibition (Inh; from which we calculated IC50 values as described in Materials and Methods), reversibility of inhibition (Rev) and use-dependence (UD), as well as time constant of onset (τon) and offset (τoff). The calculation of IC50, quantification of Rev and UD, and the determination of time constants are illustrated in Figure 1A. Because τon should be concentration-dependent if we assume a single binding reaction, we excluded it from the analyses. […] Comments on the interpretation of these properties (Rev, […] and UD) are in Results S1.
as §1, §2, §3, §4
From this protocol we extracted five parameters, as illustrated in Figure 1A. We calculated inhibition of a single “cc” concentration: Inh = (amplitudectr – amplitudedrug)/amplitudectr.

sodium channels = conditions: averaged literature data, cited from earlier work; for Ki: read-out: Ki−Lit; for Kd: read-out: Kr−Lit
[3] = human plasma, cited from earlier work
[4] = HEK293, 100 µM, read-out: Inh (inhibited fraction) at holding potential −150 mV
[5] = arithmetic mean, 100 µM, read-out: Ki-Kapp arith
[6] = arithmetic mean, 100 µM, read-out: Ki-ΔV1/2 arith
[7] = arithmetic mean, 100 µM, read-out: Kr arith
[8] = geometric mean, from Inh at −150 mV, 100 µM, read-out: Kr (resting state affinity)
[9] = geometric mean, from apparent affinity, 100 µM, read-out: Ki−Kapp (inactivated state affinity)
[10] = geometric mean, from shift of availability curve, 100 µM, read-out: Ki−ΔV1/2 (inactivated state affinity)
[11] = 100 μM, 500 s assigned where irreversible
[12] = HEK293, 100 μM, −90 mV holding potential, 5 Hz train, read-out: Inh (inhibited fraction)
[13] = HEK293, calculated from Inh at single concentration 100 μM, 5 Hz train
[14] = HEK293, 30 µM, read-out: Inh (inhibited fraction) at holding potential −150 mV
[15] = arithmetic mean, 30 µM, read-out: Ki-Kapp arith
[16] = arithmetic mean, 30 µM, read-out: Ki-ΔV1/2 arith
[17] = arithmetic mean, 30 µM, read-out: Kr arith
[18] = geometric mean, from Inh at −150 mV, 30 µM, read-out: Kr (resting state affinity)
[19] = geometric mean, from apparent affinity, 30 µM, read-out: Ki−Kapp (inactivated state affinity)
[20] = geometric mean, from shift of availability curve, 30 µM, read-out: Ki−ΔV1/2 (inactivated state affinity)
[21] = 30 μM, 500 s assigned where irreversible
[22] = HEK293, calculated from Inh at single concentration 30 μM, 5 Hz train

Nc1c(Br)cc(Br)cc1CN[C@H]1CC[C@H](O)CC1 [AMB, Ambroxol]
inhibition at 100 µM [1, 4]: 33%
Ki [1, 5]: 18.6 µM
Ki [1, 6]: 12.8 µM
Kd [1, 7]: 201 µM
Kd [1, 8]: 201 µM
Ki [1, 9]: 17.6 µM
Ki [1, 10]: 12.2 µM
τon ([2]; 100 μM): 5.74 s
UD (use-dependence of the inhibition) ([2]; 100 μM, 5 Hz train): 1.24
τoff [2, 11]: 6.78 s
Rev (reversibility) ([2]; 100 μM): 0.81
inhibition at 100 µM [2, 12]: 51%
potency estimated from few doses [2, 13]: 95.9 µM
Ki (sodium channels): 8.17 µM
Kd (sodium channels): 110 µM

CN(C)CCC=C1c2ccccc2CCc2ccccc21 [AMI, Amitriptyline]
plasma conc. ([3]; as printed in each cell): 0.064 [44] µg/ml
plasma conc. ([3]; as printed in the µg/ml cell): 0.204 µM
ΔV1/2 (shift of availability curve) ([1]; 10 µM): −11.3 mV
ΔV1/2 (shift of availability curve) ([1]; 30 μM): −11.2 mV
ΔV1/2 (shift of availability curve) ([1]; 100 μM): −18 mV
inhibition at 10 µM ([1]; HEK293, 10 µM, read-out: Inh (inhibited fraction) at holding potential −150 mV): 8%
inhibition at 30 µM [1, 14]: 20%
inhibition at 100 µM [1, 4]: 59%
Ki ([1]; arithmetic mean, 10 µM, read-out: Ki-Kapp arith): 5.17 µM
Ki ([1]; arithmetic mean, 10 µM, read-out: Ki-ΔV1/2 arith): 1.97 µM
Kd ([1]; arithmetic mean, 10 µM, read-out: Kr arith): 155 µM
Ki [1, 15]: 5.13 µM
Ki [1, 16]: 3.78 µM
Kd [1, 17]: 128 µM
Ki [1, 5]: 2.08 µM
Ki [1, 6]: 1.87 µM
Kd [1, 7]: 72.4 µM
Kd ([1]; geometric mean, from Inh at −150 mV, 10 µM, read-out: Kr (resting state affinity)): 134 µM
Kd [1, 18]: 125 µM
Kd [1, 8]: 69.6 µM
Ki ([1]; geometric mean, from apparent affinity, 10 µM, read-out: Ki−Kapp (inactivated state affinity)): 3.34 µM
Ki [1, 19]: 4.92 µM
Ki [1, 9]: 2 µM
Ki ([1]; geometric mean, from shift of availability curve, 10 µM, read-out: Ki−ΔV1/2 (inactivated state affinity)): 1.45 µM
Ki [1, 20]: 3.69 µM
Ki [1, 10]: 1.65 µM
τon ([2]; 30 μM): 10.54 s
UD (use-dependence of the inhibition) ([2]; 30 μM, 5 Hz train): 1.66
τoff [2, 21]: 16.95 s
Rev (reversibility) ([2]; 30 μM): 0.50
inhibition at 30 µM ([2]; HEK293, 30 μM, −90 mV holding potential, 5 Hz train, read-out: Inh (inhibited fraction)): 56%
potency estimated from few doses [2, 22]: 23.5 µM
Ki (sodium channels): 0.52 µM
Kd (sodium channels): 38.1 µM

CCCCN1CCCCC1C(=O)Nc1c(C)cccc1C (stereo not shown) [BPV, Bupivacaine]
plasma conc. ([3]; as printed in each cell): 0.8 [44] µg/ml
plasma conc. ([3]; as printed in the µg/ml cell): 2.462 µM
ΔV1/2 (shift of availability curve) ([1]; 100 μM): −11.3 mV
inhibition at 100 µM [1, 4]: 14%
Ki [1, 5]: 8.21 µM
Ki [1, 6]: 6.46 µM
Kd [1, 7]: 635 µM
Kd [1, 8]: 619 µM
Ki [1, 9]: 7.79 µM
Ki [1, 10]: 5.85 µM
τon ([2]; 100 μM): 7.95 s
UD (use-dependence of the inhibition) ([2]; 100 μM, 5 Hz train): 1.62
τoff [2, 11]: 16.73 s
Rev (reversibility) ([2]; 100 μM): 0.75
use-dependence (UD) ([2]; 5 Hz train): high use-dependence
inhibition at 100 µM [2, 12]: 60%
potency estimated from few doses [2, 13]: 67.7 µM
Ki (sodium channels): 20.1 µM
Kd (sodium channels): 291 µM

O=C(NCC1CCCCN1)c1cc(OCC(F)(F)F)ccc1OCC(F)(F)F (stereo not shown) [FLC, Flecainide]
inhibition at 300 µM ([1]; HEK293, 300 µM, read-out: Inh (inhibited fraction) at holding potential −150 mV): 82%
Ki ([1]; arithmetic mean, 300 µM, read-out: Ki-Kapp arith): 6.1 µM
Ki ([1]; arithmetic mean, 300 µM, read-out: Ki-ΔV1/2 arith): 9.72 µM
Kd ([1]; arithmetic mean, 300 µM, read-out: Kr arith): 65 µM
Kd ([1]; geometric mean, from Inh at −150 mV, 300 µM, read-out: Kr (resting state affinity)): 64.7 µM
Ki ([1]; geometric mean, from apparent affinity, 300 µM, read-out: Ki−Kapp (inactivated state affinity)): 5.7 µM
Ki ([1]; geometric mean, from shift of availability curve, 300 µM, read-out: Ki−ΔV1/2 (inactivated state affinity)): 7.9 µM
Kr ([1]; in words): low Kr
difference between Kr and IC50 [2]: no difference
τoff ([2]; 300 μM): 64.97 s
τon ([2]; 300 μM, 3 s assigned where too short to be resolved): 20.04 s
UD (use-dependence of the inhibition) ([2]; 300 μM, 5 Hz train): 1.34
Rev (reversibility) ([2]; 300 μM): 0.57
use-dependence (UD) ([2]; 5 Hz train): high
inhibition at 300 µM ([2]; HEK293, 300 μM, −90 mV holding potential, 5 Hz train, read-out: Inh (inhibited fraction)): 82%
potency estimated from few doses ([2]; HEK293, calculated from Inh at single concentration 300 μM, 5 Hz train): 67.6 µM
Ki (sodium channels): 5.55 µM
Kd (sodium channels): 355 µM

CN(C)CCCN1c2ccccc2CCc2ccccc21 [IMI, Imipramine]
plasma conc. ([3]; as printed in each cell): 0.2 [44] µg/ml
plasma conc. ([3]; as printed in the µg/ml cell): 0.631 µM
Ki (sodium channels): 0.89 µM
Kd (sodium channels): 26.5 µM

CNCCC(Oc1ccccc1OC)c1ccccc1 (stereo not shown) [NIS, Nisoxetine]
plasma conc. ([3]; as printed in each cell): 0.05 [46] µg/ml
plasma conc. ([3]; as printed in the µg/ml cell): 0.159 µM
ΔV1/2 (shift of availability curve) ([1]; 100 μM): −6.68 mV
inhibition at 100 µM ([1]; HEK293, read-out: Inh (inhibited fraction) at holding potential −150 mV): 34%
Ki ([1]; Ki-Kapp arith, arithmetic mean, 100 µM): 7.63 µM
Ki ([1]; Ki-ΔV1/2 arith, arithmetic mean, 100 µM): 19.5 µM
Ki ([1]; Ki−Kapp (inactivated state affinity), geometric mean, from apparent affinity, 100 µM): 7.1 µM
Ki ([1]; Ki−ΔV1/2 (inactivated state affinity), geometric mean, from shift of availability curve, 100 µM): 19.1 µM
Kd ([1]; Kr (resting state affinity), geometric mean, from Inh at −150 mV, 100 µM): 194 µM
Kd ([1]; Kr arith, arithmetic mean, 100 µM): 196 µM
τon ([2]; 100 μM): 20.71 s
UD (use-dependence of the inhibition) ([2]; 100 μM, 5 Hz train): 1.33
τoff [2, 11]: 23.41 s
Rev (reversibility) ([2]; 100 μM): 0.66
inhibition at 100 µM [2, 12]: 57%
potency estimated from few doses [2, 13]: 75.7 µM

Cc1nc2sccn2c(=O)c1CCN1CCC(=C(c2ccc(F)cc2)c2ccc(F)cc2)CC1 [RIT, Ritanserin]
plasma conc. ([3]; as printed in each cell): 0.14 [54] µg/ml
plasma conc. ([3]; as printed in the µg/ml cell): 0.299 µM
ΔV1/2 (shift of availability curve) ([1]; 30 μM): −7.28 mV
inhibition at 30 µM [1, 14]: 13%
Ki [1, 15]: 6.52 µM
Ki [1, 16]: 7.69 µM
Kd [1, 17]: 225 µM
Kd [1, 18]: 206 µM
Ki [1, 19]: 6.1 µM and 6.13 µM
Ki [1, 20]: 7.1 µM
τon ([2]; 30 μM): 14.38 s
UD (use-dependence of the inhibition) ([2]; 30 μM, 5 Hz train): 1.09
τoff [2, 21]: 22.28 s
Rev (reversibility) ([2]; 30 μM): 0.37
potency estimated from few doses [2, 22]: 23.6 µM
